≈ marks a conversion by molar mass, not a printed value.
Legend:
CCRF-CEM = assay: Cytotoxicity against human CEM cells; type: cell-based
L1210 = assay: Cytotoxicity against mouse L1210 cells; type: functional, cell-based
B16-F10 = assay: Cytotoxicity against mouse B16F10 cells; type: functional, cell-based
[1] = Cytotoxicity against mouse WEHI231 cells; type: functional, cell-based
MDA-MB-231 = assay: Cytotoxicity against human MDA-MB-231 cells; type: functional, cell-based
HL-60 = assay: Cytotoxicity against human HL60 cells; type: functional, cell-based
L929 = assay: Cytotoxicity against mouse L929 cells; type: functional, cell-based
[2] = target: Disintegrin and metalloproteinase domain-containing protein 17 (Homo sapiens) (UniProt P78536); assay: Inhibition of ADAM17 alpha-secretase activity in human […] cells using amyloid beta precursor protein as substrate at 20 ug/ml after 24 hrs by fluorimetric analysis; type: cell-based
Disintegrin and metalloproteinase domain-containing protein 17 (Homo sapiens), sequence (P78536 whole entry, the tested form may be a part): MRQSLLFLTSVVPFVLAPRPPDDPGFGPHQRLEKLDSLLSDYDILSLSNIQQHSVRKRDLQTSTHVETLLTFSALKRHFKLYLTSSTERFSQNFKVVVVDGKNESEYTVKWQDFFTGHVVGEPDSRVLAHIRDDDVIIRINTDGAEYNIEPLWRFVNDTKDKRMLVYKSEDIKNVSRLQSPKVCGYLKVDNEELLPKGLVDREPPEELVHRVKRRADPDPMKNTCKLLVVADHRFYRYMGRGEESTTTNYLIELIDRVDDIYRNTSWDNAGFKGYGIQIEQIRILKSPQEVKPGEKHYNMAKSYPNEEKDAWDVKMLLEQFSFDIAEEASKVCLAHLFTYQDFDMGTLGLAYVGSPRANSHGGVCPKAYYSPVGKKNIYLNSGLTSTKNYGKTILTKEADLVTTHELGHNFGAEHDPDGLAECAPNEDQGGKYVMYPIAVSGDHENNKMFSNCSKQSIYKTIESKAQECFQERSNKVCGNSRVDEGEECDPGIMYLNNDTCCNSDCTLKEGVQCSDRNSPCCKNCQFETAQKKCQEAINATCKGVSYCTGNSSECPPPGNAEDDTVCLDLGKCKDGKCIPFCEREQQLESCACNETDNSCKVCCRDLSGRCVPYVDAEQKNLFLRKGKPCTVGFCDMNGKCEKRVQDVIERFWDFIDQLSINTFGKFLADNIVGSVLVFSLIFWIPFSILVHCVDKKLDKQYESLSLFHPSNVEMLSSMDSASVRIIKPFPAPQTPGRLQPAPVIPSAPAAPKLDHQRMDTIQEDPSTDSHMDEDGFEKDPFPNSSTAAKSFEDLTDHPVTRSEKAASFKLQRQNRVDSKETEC

[3] = Cytotoxicity against human PLC/PRF/5 cells; type: functional, cell-based
P388-D1 (Mus musculus) = assay: Cytotoxicity against mouse P388D1 cells
[4] = Cytotoxicity against rat fibroblast cells; type: cell-based
HeLa = assay: Cytotoxicity against human HeLa cells; type: functional, cell-based
A549 = assay: Cytotoxicity against human A549 cells; type: functional, cell-based
KB = assay: Cytotoxicity against human KB cells; type: functional, cell-based
U-251 [5] = assay: Antimigratory activity against human U251 cells at 40 ug/ml after 8 hrs by wound closure assay; type: functional
K562 [6] = assay: Cytotoxicity against human K562 cells; type: functional, cell-based
[7] = Antimigratory activity against human U87 cells at 30 ug/ml after 8 hrs by wound closure assay; type: functional, U-87MG ATCC
[8] = Cytotoxicity against rat dRLh-84 cells; type: functional, cell-based
U-251 [9] = assay: Antimigratory activity against human U251 cells at 30 ug/ml after 8 hrs by wound closure assay; type: functional
Calu-6 = assay: Cytotoxicity against human Calu6 cells; type: functional, cell-based
[10] = Antimigratory activity against human U87 cells at 40 ug/ml after 8 hrs by wound closure assay; type: functional, U-87MG ATCC
K562 [11] = assay: Cytotoxicity against human imatinib-resistant K562 cells; type: functional, cell-based
[12] = target: Disintegrin and metalloproteinase domain-containing protein 17 (Homo sapiens) (UniProt P78536); assay: Inhibition of ADAM17 alpha-secretase activity in human […] cells using amyloid beta precursor protein as substrate at 30 ug/ml after 24 hrs by fluorimetric analysis; type: cell-based
[13] = target: Disintegrin and metalloproteinase domain-containing protein 17 (Homo sapiens) (UniProt P78536); assay: Inhibition of ADAM17 alpha-secretase activity in human […] cells using amyloid beta precursor protein as substrate at 40 ug/ml after 24 hrs by fluorimetric analysis; type: cell-based
[14] = Cytotoxicity against human HL60RG cells; type: functional, cell-based
[15] = Cytotoxicity against rat endothelial cells; details: Endothelial cell

CCCCCCCCCCOC(=O)c1cc(O)c(O)c(O)c1 [DECYL GALLATE]
IC50 (CCRF-CEM): 9.8 µM
IC50 (L1210): 12.2 µM
IC50 (B16-F10): 82 µM

CCCCCCCCCCCCOC(=O)c1cc(O)c(O)c(O)c1 [DODECYL GALLATE]
IC50 [1]: 1 µM
IC50 (MDA-MB-231): 1 µM
IC50 (CCRF-CEM): 47.4 µM
IC50 (L1210): 10.9 µM
IC50 (HL-60): 33 µM
IC50 (B16-F10): 48 µM
IC50 (L929): 1 µM

O=C(O)c1cc(O)c(O)c(O)c1 [GALLIC ACID]
inhibition [2]: 47.9%
IC50 [1]: 40 µM
IC50 [3]: 387 µM
IC50 (P388-D1 (Mus musculus)): 282 µM
IC50 [4]: > 20 µg/mL
IC50 (HeLa): 358 µM
IC50 (A549): 100 µM
IC50 (KB): 13.2 µg/mL (≈ 77.6 µM)
Activity (U-251 [5]): 31%
IC50 (K562 [6]): 33 µM
Activity [7]: 29%
IC50 [8]: 364 µM
Activity (U-251 [9]): 51%
IC50 (Calu-6): 10 µM
Activity [10]: 30%
IC50 (K562 [11]): 4.75 µM
inhibition [12]: 43.5%
IC50 (HL-60): 300 µM
inhibition [13]: 38.9%
IC50 [14]: 317 µM
IC50 (L929): 250 µM
IC50 [15]: > 20 µg/mL

CCCCCCCCOC(=O)c1cc(O)c(O)c(O)c1 [OCTYL_GALLATE]
IC50 [1]: 1.5 µM
IC50 (CCRF-CEM): 50 µM
IC50 (L1210): 22 µM
IC50 (B16-F10): 45 µM
IC50 (L929): 1 µM

CCCOC(=O)c1cc(O)c(O)c(O)c1 [PROPYL GALLATE]
IC50 [1]: 12 µM
IC50 (HeLa): 800 µM
IC50 (L929): 40 µM

CCCCCCCCCCCCCCOC(=O)c1cc(O)c(O)c(O)c1 [TETRADECYL GALLATE]
IC50 (CCRF-CEM): > 50 µM
IC50 (L1210): 8.5 µM
IC50 (B16-F10): 60 µM
